Laboratory results reported in patent publication US11807693B2 (priority 2014, dated 2023).
Where two headings read alike, the source gives them in different places. One block for each compound: values may come before it. Starred links: 1 amine or outer side, 2 acyl side, 3 side chain; linkers in the order of their positions; H or OH if unused. Non-standard residues stand in square brackets, D forms with d. Residues, ends and D or L forms follow the SMILES beside them. *: point of attachment. dBip = N[C@H](Cc1ccc(-c2ccccc2)cc1)C(=O)O; Oic = O=C(O)[C@@H]1C[C@@H]2CCCC[C@@H]2N1; Phe(4-Cl) = N[C@@H](Cc1ccc(Cl)cc1)C(=O)O; Phe(4-I) = N[C@@H](Cc1ccc(I)cc1)C(=O)O; γGlu = O=C(O)[C@H](CCC(=O)[*:2])N[*:1]; NMehArg = CN[C@@H](CCCCNC(=N)N)C(=O)O; NMeR = CN[C@@H](CCCNC(=N)N)C(=O)O; Palmitoyl = CCCCCCCCCCCCCCCC(=O)*; Tridecanoyl = CCCCCCCCCCCCC(=O)*; hArg = N=C(N)NCCCC[C@H](N)C(=O)O; Cha = N[C@@H](CC1CCCCC1)C(=O)O; β3hP = O=C(O)C[C@@H]1CCCN1; Nle = CCCC[C@H](N)C(=O)O; AEEA = NCCOCCOCC(=O)O; Aib = CC(C)(N)C(=O)O

Molecular target: T1, human APJ receptor (Homo sapiens, UniProt P35414)
T1 construct: expressed in transfected cells
T1 sequence (P35414 1-380): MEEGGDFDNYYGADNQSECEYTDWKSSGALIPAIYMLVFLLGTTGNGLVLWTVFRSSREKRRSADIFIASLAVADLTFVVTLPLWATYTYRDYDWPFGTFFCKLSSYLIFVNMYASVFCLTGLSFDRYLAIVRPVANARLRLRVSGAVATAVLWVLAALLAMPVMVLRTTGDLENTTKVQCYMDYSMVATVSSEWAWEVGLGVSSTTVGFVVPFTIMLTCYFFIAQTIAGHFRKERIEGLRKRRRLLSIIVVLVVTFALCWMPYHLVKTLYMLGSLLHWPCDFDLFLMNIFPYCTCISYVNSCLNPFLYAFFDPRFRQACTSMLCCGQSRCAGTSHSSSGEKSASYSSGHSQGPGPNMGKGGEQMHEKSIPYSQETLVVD
Test: [35S] GTPγS assay, human APJ receptor
Format: biochemical
Description: The membranes were incubated with modified peptides in the assay buffer. […] Bound [^35S] GTPγS was separated from free radiolabel by filtration. The filter bound radioactivity was determined by liquid scintillation counting.

SMILES: CCCCCCCCCCCCC(=O)N[C@@H](CCC(=O)NCCOCCOCC(=O)NCCOCCOCC(=O)N[C@H](CCC(N)=O)C(=O)N[C@@H](CCC(=O)O)C(=O)N1CCC[C@H]1C(=O)N(C)[C@@H](CCCNC(=N)N)C(=O)N[C@@H](CC1CCCCC1)C(=O)N[C@@H](CO)C(=O)N[C@@H](Cc1c[nH]cn1)C(=O)N[C@@H](CCCCN)C(=O)NCC(=O)N1[C@H](C(=O)N[C@@H](CCCC)C(=O)NC(C)(C)C(=O)N[C@@H](Cc2ccc(Cl)cc2)C(=O)O)C[C@@H]2CCCC[C@@H]21)C(=O)O [compound 524] ({Tridecanoyl-γGlu-AEEA-AEEA}-[dQ]EP[NMeR][Cha]SHKG[Oic][Nle][Aib][Phe(4-Cl)]-OH)
EC50 (Table 16): 53.1 nM

SMILES: CCCC[C@H](NC(=O)[C@@H]1CCCN1C(=O)CNC(=O)[C@H](CCCCN)NC(=O)[C@H](Cc1c[nH]cn1)NC(=O)[C@H](CO)NC(=O)[C@H](CC(C)C)NC(=O)[C@H](CCCCNC(=N)N)N(C)C(=O)[C@H](CCCNC(=N)N)NC(=O)[C@H](CCC(N)=O)NC(C)=O)C(=O)N1CCC[C@H]1C(=O)N[C@@H](Cc1ccc(Cl)cc1)C(=O)O [compound 73] (Ac-QR[NMehArg]LSHKGP[Nle]P[Phe(4-Cl)]-OH)
EC50 (human APJ receptor): 1.81 nM

SMILES: CCCCCCCCCCCCCCCC(=O)N[C@@H](CCC(=O)NCCOCCOCC(=O)NCCOCCOCC(=O)N[C@H](CCC(N)=O)C(=O)N[C@@H](CCCNC(=N)N)C(=O)N1CCC[C@H]1C(=O)N(C)[C@@H](CCCNC(=N)N)C(=O)N[C@@H](CC1CCCCC1)C(=O)N[C@@H](CO)C(=O)N[C@@H](Cc1c[nH]cn1)C(=O)N[C@@H](CCCCN)C(=O)NCC(=O)N1CCC[C@H]1CC(=O)N[C@@H](CCCC)C(=O)N[C@@H](Cc1ccc(Cl)cc1)C(=O)O)C(=O)O [compound 613] ({Palmitoyl-γGlu-AEEA-AEEA}-[dQ]RP[NMeR][Cha]SHKG[β3hP][Nle][Phe(4-Cl)]-OH)
EC50 (human APJ receptor): 1.66 nM

SMILES: CCCCCCCCCCCCC(=O)N[C@@H](CCC(=O)NCCOCCOCC(=O)NCCOCCOCC(=O)N[C@H](CCC(N)=O)C(=O)N[C@H](CCC(=O)O)C(=O)N1CCC[C@H]1C(=O)N(C)[C@@H](CCCNC(=N)N)C(=O)N[C@@H](CC1CCCCC1)C(=O)N[C@@H](CO)C(=O)N[C@@H](Cc1c[nH]cn1)C(=O)N[C@@H](CCCCN)C(=O)NCC(=O)N1[C@H](C(=O)N[C@@H](CCCC)C(=O)NC(C)(C)C(=O)N[C@@H](Cc2ccc(Cl)cc2)C(=O)O)C[C@@H]2CCCC[C@@H]21)C(=O)O [compound 525] ({Tridecanoyl-γGlu-AEEA-AEEA}-[dQ][dE]P[NMeR][Cha]SHKG[Oic][Nle][Aib][Phe(4-Cl)]-OH)
EC50 (Table 16): 159 nM

Other lines, results leading:

EC50 (Table 16): 1.9 nM
SMILES: CCCCCCCCCCCCC(=O)N[C@@H](CCC(=O)NCCOCCOCC(=O)NCCOCCOCC(=O)N[C@@H](CCC(N)=O)C(=O)N[C@@H](CCCNC(=N)N)C(=O)N1CCC[C@H]1CC(=O)N(C)[C@@H](CCCNC(=N)N)C(=O)N[C@@H](CC1CCCCC1)C(=O)N[C@@H](CO)C(=O)N[C@@H](Cc1c[nH]cn1)C(=O)N[C@@H](CCCCN)C(=O)NCC(=O)N1[C@H](C(=O)N[C@@H](CCCC)C(=O)N2CCC[C@H]2C(=O)N[C@@H](Cc2ccc(Cl)cc2)C(=O)O)C[C@@H]2CCCC[C@@H]21)C(=O)O [compound 441] ({Tridecanoyl-γGlu-AEEA-AEEA}-QR[β3hP][NMeR][Cha]SHKG[Oic][Nle]P[Phe(4-Cl)]-OH)

EC50: 0.171 nM
SMILES: CCCC[C@H](NC(=O)[C@@H]1C[C@@H]2CCCC[C@@H]2N1C(=O)CNC(=O)[C@H](CCCCN)NC(=O)[C@H](Cc1c[nH]cn1)NC(=O)[C@H](CO)NC(=O)[C@H](CC1CCCCC1)NC(=O)[C@H](CCCCNC(=N)N)NC(=O)[C@@H]1CCCN1C(=O)[C@H](CCCNC(=N)N)NC(=O)[C@H](CCC(N)=O)NC(=O)[C@H](CCCNC(=N)N)NC(C)=O)C(=O)N1CCC[C@H]1C(=O)N[C@@H](Cc1ccc(Cl)cc1)C(=O)O [compound 17] (Ac-RQRP[hArg][Cha]SHKG[Oic][Nle]P[Phe(4-Cl)]-OH)

EC50: 1.52 nM
SMILES: CC(=O)N[C@@H](CCCCNC(=N)N)C(=O)N[C@@H](CCCCNC(=N)N)C(=O)N[C@@H](CCC(N)=O)C(=O)N[C@H](CCCNC(=N)N)C(=O)N1CCC[C@H]1C(=O)N(C)[C@@H](CCCNC(=N)N)C(=O)N[C@@H](CC1CCCCC1)C(=O)N[C@@H](CO)C(=O)N[C@@H](Cc1c[nH]cn1)C(=O)N[C@@H](CCCCN)C(=O)NCC(=O)N1[C@H](C(=O)N[C@@H](Cc2ccc(I)cc2)C(=O)N2CCC[C@H]2C(=O)N[C@H](Cc2ccc(-c3ccccc3)cc2)C(=O)O)C[C@@H]2CCCC[C@@H]21 [compound 22] (Ac-[hArg][hArg]Q[dR]P[NMeR][Cha]SHKG[Oic][Phe(4-I)]P[dBip]-OH)
